Measurements reported in PubChem BioAssay (NCI).
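The compound was tested at five concentrations on cells cultured in 96-well plates, with a 48-hour exposure period. At the TGI there is no net growth.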

How the values were obtained:
Experiment in all cases: NCI tumour cell line growth inhibition, 48 h
[1] = test system: DLD-1 colon
[2] = test system: DMS 114 small cell lung
[3] = test system: HOP-18 NSCLC
[4] = test system: LXFL 529 NSCLC
[5] = test system: M19-MEL melanoma
[6] = test system: RXF-631 renal
[7] = test system: SNB-78 CNS
[8] = test system: XF 498 CNS
[9] = test system: DMS 273 small cell lung

| Compound | TGI [1] [µM] | TGI [2] [µM] | TGI [3] [µM] | TGI [4] [µM] | TGI [5] [µM] | TGI [6] [µM] | TGI [7] [µM] | TGI [8] [µM] | TGI [9] [µM] |
| --- | --- | --- | --- | --- | --- | --- | --- | --- | --- |
| COc1ccc(Cc2c3cc(OC)c(OC)cc3cc[n+]2C)cc1 | > 26.9 | > 28.8 | > 45.8 | > 24.6 | > 55.3 | > 24 | > 100 | > 23.4 | – |
| COc1cc(/C=C(\C#N)C(=O)c2ccccc2)cc(OC)c1OC | > 100 | > 100 | > 100 | > 100 | > 100 | – | > 100 | – | > 100 |
| Nc1cc2c(C3OC(CO)C(O)C3O)[nH]nc2c(=S)[nH]1 (stereo unspecified) | > 100 | > 100 | – | > 100 | > 100 | > 100 | > 100 | > 100 | > 100 |
| CSc1cnc2ccccc2c1Sc1cn(C)c2ccccc2c1=O | > 100 | 67.7 | > 100 | – | > 100 | 42.5 | – | 70.8 | > 100 |
| C[C@H](O)CCC(=O)c1ccoc1 | > 100 | > 100 | > 100 | > 100 | > 100 | – | > 100 | – | > 100 |
| CCCCc1c2c([n+]([O-])c3c1CCCC3)CCCC2 | – | > 100 | – | > 100 | > 100 | – | – | > 100 | > 100 |
| Cc1[nH]n(C(=O)Cc2ccccc2)c(=O)c1/C=C1\C(=O)C=Cc2ccccc21 | – | > 100 | 84.6 | – | > 100 | – | – | – | > 100 |
| O=C(O)OC12CCCCCC1C(=O)C1CCCCC12 (stereo unspecified) | – | > 100 | > 100 | > 100 | > 100 | – | > 100 | > 100 | > 100 |
| CCn1c(O)c(C(=O)Nc2cccs2)c(=O)n(CC)c1=S | > 100 | 31.7 | – | 55.7 | 39 | 41.8 | 50.4 | – | – |
| COC(=O)N1C=Cc2c(c(C)c3c([nH]c4ccccc43)c2C)C1C (stereo unspecified) | 32.7 | 40 | – | 43.7 | 37.6 | 37.5 | – | 34.2 | 39 |
| COC1=C(OC)C(=O)c2cc(C)c(=O)c(C)cc2C1=O | 41.4 | 12.7 | 29.9 | 13.9 | 11.5 | > 100 | 45.5 | – | 45.5 |
| CCCCCCCCCCCCCCCCCCCCCCC(=O)N[C@H]1CCc2cc(OC)c(OC)c(OC)c2-c2ccc(SC)c(=O)cc21 | – | – | – | > 100 | > 100 | 51.4 | > 100 | 61.3 | > 100 |
| N#CC(NNC(=O)c1ccccc1O)c1ccccc1O (stereo unspecified) | > 100 | – | > 100 | > 100 | 27.2 | – | > 100 | – | > 100 |
